Patent US9060966B2, “Use of 2,5-dihydroxybenzene derivatives for the treatment of arthritis and pain” (priority 2006, dated 2015)

Experiments:
[1] = test system: intestinal inflammatory disease (IID) induced by DSS; assay: Intestinal inflammatory disease induced by dextran sulfate sodium in mice; assay type: in vivo; conditions: for disease clinical score (0 to 6 scale): first two DSS cycles
Method: (§1) The mice were subject to two 7-day cycles of exposure to dextran sulfate sodium (DSS) (from day 1 to 7 and from day 14 to 21) in the drinking water separated by 7 days in which regular water was provided (from 7 to 14). One group was treated with vehicle (0.9% NaCl), another with Solu-Medrol (10 mg/kg/day i.m.), and the other two groups with potassium 2,5-diacetoxybenzene sulfonate (DABS), one of them with 100 mg/kg/day i.p. and the other with 125 mg/kg/day, orally (p.o.). The body weight was normalized on day 0. Data are expressed as the mean±SD of the percentage of the basal weight (day 0) of 10 mice per group.
as §1, with “(p.o.)” for “(p.o.). The body weight was normalized on day 0.”, “clinical score” for “percentage”, “disease continuously obtained from” for “basal weight (day 0) of”, “per each” for “per”
The induction of the intestinal inflammatory disease described below is a representative model for the evaluation of therapeutic strategies to treat Crohn's disease and ulcerative colitis. 7-8 week old female mice of strain C57BL/6J-664 were used. The intestinal inflammatory disease (IID) was induced by feeding the mice with 3% dextran sulfate sodium (DSS; MW 40,000) dissolved in drinking water in 2 cycles. Each cycle consisted of 7 days with 3% DSS in the drinking water separated by 7 days with regular water. A daily clinical evaluation of the animals was performed in which the body weight, the consistency of the faeces and the presence of blood in the faeces were determined. Thus, the validated score of the clinical activity of the disease was evaluated with a 0 to 6 scale, considering the following parameters: consistency of the faeces, presence or absence of fecal blood and loss of weight.
At the end of the first cycle of exposure to DSS, the mice were divided into the following treatment groups: a first group was administered intraperitoneal (i.p) injections of vehicle (0.9% NaCl). Another group received intramuscular injections of Solu-Medrol, a standard IID treatment, at a dose of 10 mg/kg/day. A third group was administered i.p. injections of potassium 2,5-diacetroxybenzene sulfonate (DABS, 100 mg/kg/day). The last group was treated orally with 125 mg/kg day of DABS.

pterygium = assay: Topical treatment of pterygium in a patient; assay type: in vivo, human; conditions: 2.5% solution, one drop four times per day, two weeks
From the text: FIG. 3. […] The treatment consists of the application of 4 drops of said solution daily, for two weeks.
The solution was applied topically to a patient suffering from unilateral pterygium, as one drop four times per day.

SMILES | disease clinical score (0 to 6 scale) ([1]; 100 mg/kg/day i.p.) | disease clinical score (0 to 6 scale) ([1]; 125 mg/kg/day oral) | loss of weight produced by the two cycles of exposure to DSS ([1]; DABS 100 mg/kg/day i.p. or 125 mg/kg/day p.o., routes not distinguished) | efficacy compared with the standard treatment Solu-Medrol ([1]; body weight and clinical score, Solu-Medrol 10 mg/kg/day i.m.) | pterygium (pterygium)
CC(=O)Oc1ccc(OC(C)=O)c(S(=O)(=O)[O-])c1.[K+] [DABS, potassium 2,5-diacetoxybenzene sulfonate] | reduced | reduced | reduced | not lower (in some points it is higher) | –
O=S(=O)(O)c1cc(O)ccc1O [DHBS, 2,5-dihydroxybenzenesulfonic acid] | – | – | – | – | partial reversal of the pterygium
